According to patent EP4173633B1, “PRODUCTS COMPRISING ESSENTIAL OIL OR EXTRACT WITH PHENOLIC COMPOUNDS OBTAINED FROM THE RESIDUAL WATER OF THE HYDRODISTILLATION OF EUCALYPTUS GLOBULUS LEAVES AND THEIR USES” (RAIZ - Instituto De Investigação Da Floresta E Papel, priority 2021, dated 2023):

Test system: NIH/3T3 fibroblasts
Assay: β-gal activity associated with senescence, etoposide-induced
Assay type: cell-based, mouse
Conditions: 12.5 µM etoposide 24 h alone; control 8.86%
Description: HaCaT and NIH/3T3 cells were seeded in 12-well plates at a density of 1.5 x 10^5 or 2.5 x 10^4 cells/well, respectively, and adhered for 24 h. Cell senescence was then induced in the HaCaT and NIH/3T3 lines by exposure to 100 µM etoposide (Sigma-Aldrich, St. Louis, MO, USA) for 72 h or 12.5 µM etoposide for 24 h, respectively. After the incubation period, senescent HaCaT and NIH/3T3 cells were treated in the absence or presence of EO (0.16 mg/mL) or HRW (0.8 µg/mL) for 24 h. In the case of NIH/3T3 cells, they were further treated for 24 h with bacterial cellulose membrane extract impregnated with glycerol and 2 µg/cm2 of extract with phenolic compounds obtained from wastewater from hydrodistillation (BC-G-HRW2), prepared from sterile samples (10 cm 2) incubated in 10 ml of DMEM exposure medium. As a control, cells not treated with etoposide were incubated with DMEM exposure medium or similarly prepared BC-G and BC-G-HRW2 membrane extracts. […] Finally, senescent cells were quantified using an inverted microscope (Carl Zeiss, Oberkochen, Germany) at 20x magnification, determining the % of β-gal-positive cells in randomly selected fields in four different images obtained in at least 3 independent experiments performed in duplicate.

In the case of `COc1cc([C@@H]2c3cc4c(cc3[C@@H](O[C@@H]3O[C@@H]5CO[C@@H](C)O[C@H]5[C@H](O)[C@H]3O)[C@H]3COC(=O)[C@H]23)OCO4)cc(OC)c1O` [etoposide], the “number of β-gal-positive associated senescent NIH/3T3 cells” value is reported as 44.11%.
